Test results taken from patent publication US4243671A, “Inhibition of thromboxane synthetase formation and arachidonic acid-induced platelet aggregation and bronchoconstriction” (E. R. Squibb & Sons, Inc., priority 1979, dated 1981).

Legend:
thromboxane synthetase [1] = conditions: cited from earlier work
Thromboxane synthetase [2] = target: T1, Thromboxane synthetase (Homo sapiens, UniProt P24557); assay: Inhibition of thromboxane synthetase (platelet membrane preparation, 14C-arachidonic acid to thromboxane-B2); type: biochemical
T1 construct: from tissue; host or cells: blood platelets from fresh platelet-rich plasma (PRP), lysed membrane suspension
T1 sequence (P24557 1-533): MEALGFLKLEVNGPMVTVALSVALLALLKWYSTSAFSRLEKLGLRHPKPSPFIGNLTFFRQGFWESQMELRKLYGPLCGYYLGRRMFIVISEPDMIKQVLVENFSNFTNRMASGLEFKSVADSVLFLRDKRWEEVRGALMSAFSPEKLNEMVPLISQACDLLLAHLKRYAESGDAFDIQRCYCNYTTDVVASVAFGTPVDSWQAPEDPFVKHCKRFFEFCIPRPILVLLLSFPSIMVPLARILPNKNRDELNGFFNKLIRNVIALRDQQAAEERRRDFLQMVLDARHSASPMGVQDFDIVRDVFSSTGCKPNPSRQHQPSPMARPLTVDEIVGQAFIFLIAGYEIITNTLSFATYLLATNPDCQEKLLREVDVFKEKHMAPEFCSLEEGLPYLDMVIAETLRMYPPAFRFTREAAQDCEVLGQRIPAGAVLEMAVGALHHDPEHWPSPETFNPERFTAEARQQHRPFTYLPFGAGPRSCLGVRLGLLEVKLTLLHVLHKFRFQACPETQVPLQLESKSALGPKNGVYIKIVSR
Description: Thromboxane synthetase is prepared from fresh PRP according to the procedure of Nijkamp et al, supra. Briefly, a platelet pellet is washed in physiological saline, and the platelets lysed by a combination of freeze-thaw cycles and homogenizations. This platelet membrane suspension is divided into small aliquots and stored at -70° C. until used. Thromboxane synthetase activity is determined by incubating the platelet preparation with ^14 C-arachidonic acid in a reaction mixture containing epinephrine, reduced glutathione, and Tris-HCl buffer, pH 7.5. Thromboxane synthetase activity is determined in the presence of the test compound dissolved in methanol, or of the methanol control. The reaction is carried out for 3-5 minutes at 37° C. and stopped by the addition of 2N HCl. In some instances, aliquots of the reaction mixtures are spotted directly on Quantum thin layer plates for thin layer chromatography of reaction mixture components. In other experiments, the lipids in the reaction mixture are extracted into ethyl acetate. After the ethyl acetate is taken to dryness, the lipid residue is dissolved in ethanol and aliquots spotted on the thin layer plates. In either instance, the plates are developed using chloroform:methanol:acetic acid (90:5:5) as solvent system. […] The radioactivity that migrates in the area of thromboxane-B2 is then determined by liquid scintillation spectrometry.

[3] = tested on: arachidonic acid-induced bronchoconstriction; assay: Inhibition of arachidonic acid-induced bronchoconstriction in the anesthetized guinea pig; type: in vivo
Description: (§1) Male guinea pigs weighing 480-520 g are anesthetized with urethane (1.5 g/kg, i.p.). Spontaneous respiration is arrested with succinylchloline chloride (1.5 mg/kg, i.p.). The guinea pigs are artificially ventilated with a Palmer respiration pump through a tracheal cannula at a rate of 72 strokes/min and a stroke volume of 3 ml.
(§2) Pulmonary resistance and dynamic compliance are determined by the method described by Amdur and Mead, "Mechanics of Respiration in Unanesthetized Guinea Pigs", Amer. J. Physiol. 192, 364-368, as modified by Giles et al. (1973), "The Bronchodilator and Cardiac Stimulant Effects of Th 1165A, Salbutamol, and Isoproterenol", J. Pharmacol. Exp. Ther. 186, 472-481. Respiratory flow is measured with a Fleisch pneumotachograph (No. 000) and a Validyne (MP 45) differential pressure transducer. Transpulmonary pressure is determined by monitoring the difference between pressure in the external end of a tracheal cannula and the pressure in the pleural cavity by means of a Validyne MP 45 differential pressure transducer. The flow and pressure signals are fed into an on-line analog Pulmonary Mechanics Computer (Buxco Electronics, Inc.) which provides calculation of pulmonary resistance and dynamic compliance. The computer output of flow, pressure, volume, resistance and dynamic compliance are recorded on a Brush 260 recorder. Blood pressure is measured from a carotid artery with a Statham P23Db transducer and heart rate is derived from the pulse pressure. Both blood pressure and heart rate are recorded with the Buxco pulmonary mechanics computer. All parameters are digitalized by a Data Logger, Model DL-12 Buxco electronics and recorded on a Texas Instrument silent 700 ASR printer.
Arachidonic acid (AA) (0.25 mg/kg i.v.) is administered to groups of 4-5 guinea pigs 15 minutes before and 3 and 10 minutes after the administration of the test compound (0.1, 0.3 and 1.0 mg/kg i.v.). The administration of AA causes substantial increases in pulmonary resistance (R) and decrease in dynamic compliance (C) of 70% and 50% respectively. […] The inhibitory effect of the test compound lasts for less than 10 minutes.

[4] = tested on: arachidonic acid induced platelet aggregation; assay: Inhibition of arachidonic acid induced platelet aggregation in platelet-rich plasma; type: cell-based; conditions: arachidonic acid 800 μM, human PRP
Description: Venous blood is collected from the antecubital vein of human volunteers who are drug free for at least one week. The blood is collected by gravity into plastic transfer bags containing 0.38% sodium citrate as the anticoagulant. Platelet-rich plasma (PRP) is prepared by centrifuging the citrated blood at 200×g for 10 min at 25° C. Platelet-poor plasma (PPP) is obtained by centrifuging the PRP at 2500×g for 30 min at 25° C. Platelet aggregation is studied photometrically (Boron, Nature 194:927-929,1962) using a Chronolog aggregometer connected to a linear recorder. The test compound is dissolved in methanol and preincubated with PRP for 2.5 minutes at 37° C. Arachidonic acid (800 μM) dissolved in 0.1 M Tris-HCl buffer, pH 8.5, is then added and the optical transmission recorded for at least 3 minutes. The rate of increase in optical transmission, which is a measure of the initial velocity of aggregation, is measured by determining the slope of the steepest part of the curve.

[5] = tested on: histamine-induced bronchoconstriction; assay: Specificity test: histamine-induced bronchoconstriction in the anesthetized guinea pig; type: in vivo; conditions: 1.0 mg/kg i.v.; histamine 5.0 μg/kg i.v.
Description: as §1
as §2, with “The flow and pressure signals are fed into an on-line analog Pulmonary Mechanics Computer (Buxco Electronics, Inc.) which provides calculation of pulmonary resistance and dynamic compliance.” left out, “All parameters are digitalized by a Data Logger, Model DL-12 Buxco electronics and recorded on a Texas Instrument silent 700 ASR printer.” left out

inhibition at 1000 µM (Thromboxane synthetase [2]; at 1000 μM)	IC50 (Thromboxane synthetase [2]; read-out: I50 thromboxane synthetase)	duration of hypertension ([3]; 0.1, 0.3 and 1.0 mg/kg i.v.)	IC50 ([4]; read-out: I50 (concentration to achieve 50% inhibition) of platelet aggregation)	SMILES	inhibition of thromboxane synthetase (literature) (thromboxane synthetase [1])	effect of compound alone on R, C or heart rate ([3]; 0.1, 0.3 and 1.0 mg/kg i.v.)	effect on blood pressure ([3]; 0.1, 0.3 and 1.0 mg/kg i.v.)	duration of inhibitory effect on AA-induced changes ([3]; 0.1-1.0 mg/kg i.v.)	effect on AA-induced changes in pulmonary resistance (R) and dynamic compliance (C) ([3]; 0.1-1.0 mg/kg i.v. given before AA 0.25 mg/kg i.v.)	inhibition at 1000 µM ([4]; screening concentration 1 mM, read-out: effectiveness in inhibiting platelet aggregation)	effect on histamine-induced increases in R and decreases in C [5]
				c1c[nH]cn1 [imidazole]	specific inhibitor						
83%	30 µM	up to 30 minutes	30 µM	C(=Cc1ccccc1)Cn1ccnc1.Cl [test compound, 1-(3-phenyl-2-propenyl)-1H-imidazole, hydrochloride (1:1)]		does not significantly alter	profound hypertension of long duration	less than 10 minutes	significant dose dependent decrease	100%	not altered
